Data on 2 molecules can be found in patent US20230083730A1, “Composition with Anti-Aging Properties and the Selection Method thereof” (Hemix Biotech Limited, priority 2021, published 2023).

Assay [1] concerns Caenorhabditis elegans. In words: Caenorhabditis elegans lifespan analysis. Type of assay: in vivo. The settings on record: 200 μM spermidine alone, 10 μM resveratrol alone, or both combined; FIG. 1a. The procedure:
According to an embodiment of the present invention, i.e., a method for selecting a composition having anti-aging properties, step 1 of the method is to confirm the life-span enhancing effect of the composition by using Caenorhabditis elegans lifespan analysis. For chemical treatment in Caenorhabditis elegans, four batches of chemical with different ingredients and content were added to the nematode growth medium (NGM) dishes. The NGM with agarose was autoclaved and then cooled down to below 65° C. The NGM was then poured into 60 mm dishes and incubated at room temperature overnight. The solidified NGM dishes were stored at 4° C. Escherichia coli OP50 strain was used as the food source for C. elegans. A single colony of OP50 was incubated in 200 mL of lysogeny broth (LB) medium at 37° C. overnight. The OP50 was then killed by incubation at 65° C. for 30 minutes. The dead OP50 was spread throughout the surface of the NGM dishes. The NGM dishes with dead OP50 were stored at 4° C. for up to 2 weeks. The synchronization of C. elegans was carried out by the bleaching method. 20 L4 larvae were picked to each 60 mm dish with different chemical treatment and cultured at 20° C. They were monitored every day, and the number of living, dead and missing C. elegans were recorded. […]

The subject of assay [2] is human bone marrow mesenchymal stem cells (MSCs). Nature of the assay: human bone marrow mesenchymal stem cell viability assay (MTS). It is filed as cell-based. The note with it: 2 days treatment; FIG. 4. The procedure: Firstly, cells were cultured in 96-well plate and CellTiter 96® AQueous One Solution Cell Proliferation Assay (MTS) was used to carry out the cell viability assay. For human mesenchymal stem cells (MSCs), they were seeded and cultured in 96-well plate and treated with control, resveratrol, spermidine or combined treatment for 2 days. Human bone marrow mesenchymal stem cells (MSCs) were treated with four batches of chemical having different ingredients and concentrations of spermidine and resveratrol for two days under identical experimental conditions. The ingredients and concentrations of spermidine and resveratrol of the four different chemicals are: control blank, spermidine alone, resveratrol alone, and a combined use of spermidine and resveratrol.

Assay [3] deals with Caenorhabditis elegans. The settings on record: prior art literature; cited from earlier work.

The structures appear in SMILES notation.

As for `NCCCCNCCCN` [spermidine], the “life span of Caenorhabditis elegans” value in the assay on Caenorhabditis elegans [1] is listed as “higher than that of the control blank”. Also, in assay [2], the “cell viability of human bone marrow MSCs” value is reported as “can enhance cell viability”. Further, the “effective concentration to extend the lifespan of Caenorhabditis elegans” value in the assay with Caenorhabditis elegans [3] is 200 µM.
In the case of `Oc1ccc(C=Cc2cc(O)cc(O)c2)cc1` [resveratrol, 3,5,4′-trihydroxystilbene], the “life span of Caenorhabditis elegans” value with Caenorhabditis elegans [1] was “higher than that of the control blank”. Also, the “cell viability of human bone marrow MSCs” value in assay [2] is recorded as “can enhance cell viability”. In addition, the “effective concentration to extend the lifespan of Caenorhabditis elegans” value in the assay on Caenorhabditis elegans [3] was 100 µM.
